Key:
[1] = tested on: recombinant human CFTR carrying the premature stop codon (PTC) mutation G542X; assay: CFTR-PTC mutant translation readthrough, Nanoluc tagged CFTR luminescence (G542X cell line); assay type: cell-based; details: in combination with G418, G542X cell line; for CFTR G542X ACTIVITY Fold 10 μM G-418: fold over 10 μM G-418; for EC50: 16HBE cells
Method in brief: (§1)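 Readthrough is the 48 h compound-induced luminescence increase scaled to that of maximal G418 (125-250 μM). Compounds run from 50 μM final in 2-fold steps, ±10 μM G418, on 16HBE lines carrying Nanoluc-tagged CFTR G542X (extracellular loop 4 tag) or R1162X (C-terminal tag), with 3 μM VX-809 present.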

[2] = tested on: recombinant human CFTR carrying the premature stop codon (PTC) mutation R1162X; assay: CFTR-PTC mutant translation readthrough, Nanoluc tagged CFTR luminescence (R1162X cell line); assay type: cell-based; details: for CFTR R1162X ACTIVITY Fold 10 μM G-418: fold over 10 μM G-418, in combination with G418; for EC50: in combination with G418, 16HBE cells, read-out: CFTR R1162X ACTIVITY EC50
Method in brief: as §1

SMILES	CFTR G542X ACTIVITY Fold 10 μM G-418 [1]	EC50 [1]	CFTR R1162X ACTIVITY Fold 10 μM G-418 [2]	EC50 [2]
OCc1nnc(-c2ccc(OCc3c(Cl)cccc3C(F)(F)F)cc2)o1	A′ (A′ = ≥10X)	< 1000 nM	A′ (A′ = ≥10X)	< 1000 nM
Cc1cccc(C(F)(F)F)c1COc1ccc(-n2cnc(Cn3cnc(CO)c3)c2)nc1	A′ (A′ = ≥10X)	1000 to 10000 nM	A′ (A′ = ≥10X)	1000 to 10000 nM
Cc1cccc(C(F)(F)F)c1COc1ccc(-n2ncc(CO)n2)nc1	A′ (A′ = ≥10X)	< 1000 nM	A′ (A′ = ≥10X)	< 1000 nM
O=C1O[C@H](CO)CN1c1ccc(OCc2c(Cl)cccc2C(F)(F)F)cn1	A′ (A′ = ≥10X)	1000 to 10000 nM	A′ (A′ = ≥10X)	1000 to 10000 nM
Cc1cccc(C(F)(F)F)c1COc1cnc(-n2cc(-c3ccccn3)nn2)nc1	A′ (A′ = ≥10X)	< 1000 nM	B′ (B′ = ≥5X to <10X)	< 1000 nM
Cc1cccc(C(F)(F)F)c1COc1ccc(-n2cnc(CO)n2)cc1	A′ (A′ = ≥10X)	< 1000 nM	A′ (A′ = ≥10X)	< 1000 nM
Clc1cccc(Cl)c1COc1cnc(N2CC3(CCCOC3)C2)nc1 [2-[5-[(2,6-dichlorophenyl)methoxy]pyrimidin-2-yl]-6-oxa-2-azaspiro[3.5]nonane]	A′ (A′ = ≥10X)	< 1000 nM	A′ (A′ = ≥10X)	1000 to 10000 nM
O=C1OC(CO)CN1c1ccc(OCc2c(Cl)cc(F)cc2Cl)cc1 (stereo not shown)	B′ (B′ = ≥5X to <10X)	> 10000 nM	B′ (B′ = ≥5X to <10X)	> 10000 nM
Cc1cccc(C(F)(F)F)c1COc1cnc(N2CCC(CO)C2)nc1 (stereo not shown)	A′ (A′ = ≥10X)	< 1000 nM	A′ (A′ = ≥10X)	< 1000 nM
NCc1cc(-c2ccc(OCc3c(Cl)cccc3Cl)cn2)no1 [Example 234, [3-[5-[(2,6-dichlorophenyl)methoxy]-2-pyridyl]isoxazol-5-yl]methanamine]	A′ (A′ = ≥10X)	< 1000 nM	A′ (A′ = ≥10X)	1000 to 10000 nM
O=C1O[C@@H](CO)CN1c1ccc(OCc2c(Cl)cccc2Cl)cc1 [(5R)-3-[4-[(2,6-dichlorophenyl)methoxy]phenyl]-5-(hydroxymethyl)oxazolidin-2-one]	A′ (A′ = ≥10X)	1000 to 10000 nM	A′ (A′ = ≥10X)	1000 to 10000 nM
CNC(=O)C1CCN(c2ncc(OCc3c(Cl)cccc3Cl)cn2)CC1	A′ (A′ = ≥10X)	1000 to 10000 nM	A′ (A′ = ≥10X)	1000 to 10000 nM
NC(=O)C1CN(c2ncc(OCc3c(Cl)cccc3C(F)(F)F)cn2)CC(=O)N1 (stereo not shown)	C′ (C′ = <5X)	1000 to 10000 nM	C′ (C′ = <5X)	1000 to 10000 nM
NC[C@H]1CN(c2ncc(OCc3c(Cl)cccc3Cl)cn2)CCO1	A′ (A′ = ≥10X)	< 1000 nM	A′ (A′ = ≥10X)	1000 to 10000 nM
O=C1CCN(c2ncc(OCc3c(Cl)cccc3C(F)(F)F)cn2)C(=O)N1	C′ (C′ = <5X)	1000 to 10000 nM	–	> 10000 nM
OCc1ncn(-c2ccc(OCc3c(Cl)cccc3C(F)(F)F)cc2)n1	A′ (A′ = ≥10X)	< 1000 nM	A′ (A′ = ≥10X)	1000 to 10000 nM

SMILES	CFTR G542X ACTIVITY Fold 10 μM G-418 [1]	EC50 [1]	CFTR R1162X ACTIVITY Fold 10 μM G-418 [2]	EC50 [2]
OCC1CN(c2ccc(OCc3c(Cl)cccc3Cl)cc2)CCO1 (stereo not shown) [[4-[4-[(2,6-dichlorophenyl)methoxy]phenyl]morpholin-2-yl]methanol]	A′ (A′ = ≥10X)	1000 to 10000 nM	A′ (A′ = ≥10X)	1000 to 10000 nM
CC1(C)NC(=O)N(c2ccc(OCc3c(Cl)cccc3C(F)(F)F)cn2)C1=O	A′ (A′ = ≥10X)	1000 to 10000 nM	B′ (B′ = ≥5X to <10X)	1000 to 10000 nM
OC[C@@H]1CN(c2ncc(OCc3c(Cl)cccc3C(F)(F)F)cn2)CCO1	A′ (A′ = ≥10X)	< 1000 nM	A′ (A′ = ≥10X)	< 1000 nM
Cc1cccc(C(F)(F)F)c1COc1cnc(N2CC(=O)N(C)C2=O)nc1	A′ (A′ = ≥10X)	1000 to 10000 nM	A′ (A′ = ≥10X)	1000 to 10000 nM
Cc1cccc(C(F)(F)F)c1COc1cnc(N2CCOC(CN)C2)nc1 (stereo not shown)	A′ (A′ = ≥10X)	< 1000 nM	A′ (A′ = ≥10X)	< 1000 nM
O=C1N[C@H](CO)CN1c1ccc(OCc2c(Cl)cccc2Cl)cn1	A′ (A′ = ≥10X)	< 1000 nM	A′ (A′ = ≥10X)	< 1000 nM
NCc1cn(-c2ccc(OCc3c(Cl)cccc3Cl)cc2)cn1 [Example 227, [1-[4-[(2,6-dichlorophenyl)methoxy]phenyl]imidazol-4-yl]methanamine]	B′ (B′ = ≥5X to <10X)	1000 to 10000 nM	B′ (B′ = ≥5X to <10X)	1000 to 10000 nM
OCc1cn(-c2ncc(OCc3c(Cl)cccc3Cl)cn2)cn1 [[1-[5-[(2,6-dichlorophenyl)methoxy]pyrimidin-2-yl]imidazol-4-yl]methanol]	A′ (A′ = ≥10X)	< 1000 nM	A′ (A′ = ≥10X)	1000 to 10000 nM
Cc1cccc(C(F)(F)F)c1COc1cnc(N2CCN(C(N)=O)CC2)nc1	A′ (A′ = ≥10X)	< 1000 nM	A′ (A′ = ≥10X)	< 1000 nM
O=C1O[C@H](CO)CN1c1ncc(OCc2c(Cl)cccc2C(F)(F)F)cn1 [(5S)-3-(5-{[2-chloro-6-(trifluoromethyl)phenyl]methoxy}pyrimidin-2-yl)-5-(hydroxymethyl)-1,3-oxazolidin-2-one]	C′ (C′ = <5X)	1000 to 10000 nM	C′ (C′ = <5X)	> 10000 nM
OCc1n[nH]c(-c2ccc(OCc3c(Cl)cccc3Cl)cn2)n1 [[5-[5-[(2,6-dichlorophenyl)methoxy]-2-pyridyl]-1H-1,2,4-triazol-3-yl]methanol]	B′ (B′ = ≥5X to <10X)	1000 to 10000 nM	B′ (B′ = ≥5X to <10X)	1000 to 10000 nM
Cc1cccc(C(F)(F)F)c1COc1ccc(N2C(=O)NC(C(C)C)C2=O)cc1 (stereo not shown)	A′ (A′ = ≥10X)	< 1000 nM	A′ (A′ = ≥10X)	1000 to 10000 nM
Cc1cccc(C(F)(F)F)c1COc1cnc(N2CC[C@H](C(N)=O)C2)nc1	A′ (A′ = ≥10X)	1000 to 10000 nM	A′ (A′ = ≥10X)	1000 to 10000 nM
Cc1cccc(C(F)(F)F)c1COc1cnc(N2CCN(C(N)=O)[C@@H](C)C2)nc1	A′ (A′ = ≥10X)	< 1000 nM	A′ (A′ = ≥10X)	< 1000 nM
OC1CCN(c2ncc(OCc3c(Cl)cccc3Cl)cn2)CC1 [1-[5-[(2,6-dichlorophenyl)methoxy]pyrimidin-2-yl]piperidin-4-ol]	A′ (A′ = ≥10X)	< 1000 nM	A′ (A′ = ≥10X)	< 1000 nM
CC(=O)NC[C@@H]1CN(c2ncc(OCc3c(C)cccc3C(F)(F)F)cn2)CCO1	A′ (A′ = ≥10X)	< 1000 nM	A′ (A′ = ≥10X)	1000 to 10000 nM
